Source: the supplement of paper PMC10627819

What was measured:
Assay in all cases: fitness (endpoint OD595 vs no drug) (fraction); higher = more growth
[1] = test system: S. aureus DSM 20231
In short: (§1)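 Bacterial fitness was scored as optical density at the stationary-phase transition relative to the robust mean of no-drug control wells. Scores are capped at 1. The growth data were OD595 readings every 30 min for 14 h at 37 °C, background-subtracted against the first reading, from 384-well plates inoculated at OD595 0.01 in TSB, LB Lennox or CY.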

[2] = test system: S. aureus Newman
In short: as §1

[3] = test system: S. pneumoniae D39V
In short: as §1
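Further: OD595 on entry to stationary phase over no-drug wells; at most 1.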

CO[C@@]12[C@H](COC(N)=O)C3=C(C(=O)C(C)=C(N)C3=O)N1C[C@@H]1N[C@@H]12 [Mitomycin C] + CN(N=O)C(=O)N[C@@H](C=O)[C@@H](O)[C@H](O)[C@H](O)CO [Streptozotocin]
fitness
Details | first compound 0.001075 µg/mL | first compound 0.00215 µg/mL | first compound 0.0043 µg/mL | first compound 0.0156 µg/mL | first compound 0.0312 µg/mL | first compound 0.0625 µg/mL
[1], partner 0.15 µg/mL | – | – | – | 0.706 | 0.656 | 0.541
[1], partner 0.3 µg/mL | – | – | – | 0.633 | 0.645 | 0.51
[1], partner 0.6 µg/mL | – | – | – | 0.571 | 0.56 | 0.433
[2], partner 0.15 µg/mL | – | – | – | 0.654 | 0.578 | 0.433
[2], partner 0.3 µg/mL | – | – | – | 0.615 | 0.548 | 0.379
[2], partner 0.6 µg/mL | – | – | – | 0.462 | 0.381 | 0.185
[3], partner 1.2 µg/mL | 0.899 | 0.84 | 0.74 | – | – | –
[3], partner 2.4 µg/mL | 0.911 | 0.886 | 0.777 | – | – | –
[3], partner 4.8 µg/mL | 0.915 | 0.848 | 0.603 | – | – | –

fitness, [3], one replicate
Details | first compound 0.002 µg/mL | first compound 0.004 µg/mL | first compound 0.008 µg/mL
partner 1.2 µg/mL | 0.815 | 0.769 | 0.525
partner 2.4 µg/mL | 0.796 | 0.739 | 0.588
partner 4.8 µg/mL | 0.653 | 0.597 | 0.347
